Tested on: hematopoietic progenitors (MPP^FL+, CLP, DN1, DN2, DN3)
Assay: OP9:OP9DL1 stromal co-cultures, myeloid versus lymphoid progeny by flow cytometry
Type: cell-based, mouse
Conditions: 50 nM; for myeloid versus lymphoid progeny: DN3 progenitors; for myeloid versus lymphoid progeny / percentage of myeloid progeny versus lymphoid progeny: 6 days after plating on OP9:OP9DL1 stroma; for percentage of myeloid progeny versus lymphoid progeny: MPP^FL+, CLP, DN1 and DN2 progenitors
Description: FIG. 6 is a series of graphical representations of FACS plots and quantitation of myeloid versus lymphoid progeny. FIG. 6a are representative FACS plots of progeny from hematopoietic progenitors 6 days after plating on OP9:OP9DL1 stroma in the presence or absence of 5-aza-2′deoxycytidine. […] FIG. 6b is a histogram depicting quantitation of myeloid versus lymphoid progeny. The percentage of myeloid versus lymphoid progeny, as defined above, were quantified for each well from the experiment in a. Each bar represents the average of triplicate wells, and the error bars are the standard deviations between wells.
OP9:OP9DL1 stromal co-cultures. 3000 OP9 and 3000 OP9DL1 cells were plated in each well of 96 well plates in MEMa+10% FBS. The next day, 50 double-sorted progenitors were plated per well in the presence of 5 ng/ml IL-7 and F1t3L, and 10 ng/ml IL-3, IL-6, M-CSF, GM-CSF, and G-CSF (PeproTech). 50 nM 5-aza-2′-deoxycytide (Sigma) or vehicle (50% acetic acid) was added to the wells as indicated. At day 3, half of the media plus cytokines and drugs was replaced. At day 6, progeny from each well were stained and analyzed by flow cytometry to identify lymphoid versus myeloid progeny.
To test the hypothesis that reduced methylation preferentially promotes myeloid as opposed to lymphoid differentiation, an in vitro assay system that promotes both myeloid and lymphoid development was used (as in Engel et al., Epigenetics. 2009;4:98-99 and Bell et al., Nature. 2008;452:764-767). […] It evident that inhibiting DNA methylation promotes myeloid versus lymphoid specification, providing a mechanism for the myeloid skewing observed in Dnmt1 hypomorphs.

[1] = listed as 5-aza-2′deoxycytidine

## Nc1ncn([C@H]2C[C@H](O)[C@@H](CO)O2)c(=O)n1 [5-aza-2′-deoxycytidine]
DN1 cells, 6 days
  myeloid skewing, compared between progenitor populations: most pronounced in DN1 cells
  myeloid versus lymphoid progeny: remained lymphoid committed
  percentage of myeloid progeny versus lymphoid progeny: increased at the expense of lymphoid progeny
[1]
  myeloid versus lymphoid progeny: continued to generate an exclusively lymphoid readout
  percentage of myeloid progeny versus lymphoid progeny: trended towards generating more myeloid progeny
DN3 wells, 6 days
  cell expansion: inhibited cell expansion

From patent US20130281304A1, “Comprehensive Methylome Map of Myeloid and Lymphoid Commitment from Hematopoietic Proenitors” (priority 2010, published 2013)
